Where two headings read alike, the source gives them in different places.
Legend:
[1] = molecular target: EGFR del19/C797S (Homo sapiens, UniProt P00533, C797S/DEL746-750); assay: Biochemical EGFR kinase assay (Lance Ultra TR-FRET), double mutant del19/C797S
Summary of the method: (§1)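 In this biochemical assay, phosphorylation after a one-hour room-temperature reaction was detected with europium-labelled anti-phosphopeptide antibody at 2 nM final concentration.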

[2] = molecular target: EGFR wildtype (WT) (Homo sapiens, UniProt P00533); assay: Biochemical EGFR kinase assay (Lance Ultra TR-FRET), wildtype
Summary of the method: as §1

[3] = molecular target: EGFR L858R/T790M/C797S (Homo sapiens, UniProt P00533, C797S/L858R/T790M); assay: Biochemical EGFR kinase assay (Lance Ultra TR-FRET), triple mutant L858R/T790M/C797S
Summary of the method: as §1

[4] = molecular target: EGFR L858R/C797S (Homo sapiens, UniProt P00533, C797S/L858R); assay: Biochemical EGFR kinase assay (Lance Ultra TR-FRET), double mutant L858R/C797S
Summary of the method: as §1

[5] = molecular target: EGFR del19/T790M/C797S (Homo sapiens, UniProt P00533, C797S/DEL746-750/T790M); assay: Biochemical EGFR kinase assay (Lance Ultra TR-FRET), triple mutant del19/T790M/C797S
Summary of the method: as §1

[6] = IC50 del19/C797S (nM) 100 μM ATP, 100 μM ATP
[7] = Km ATP, read-out: IC50 del19/C797S (nM) Km ATP
[8] = IC50 WT (nM) 100 μM ATP, 100 μM ATP
[9] = Km ATP, read-out: IC50 WT (nM) Km ATP
[10] = Km ATP, read-out: IC50 L858R/T790M/C797S (nM) Km ATP
[11] = IC50 L858R/C797S (nM) 100 μM ATP, 100 μM ATP
[12] = IC50 del19/T790M/C797S (nM) 100 μM ATP, 100 μM ATP
[13] = Km ATP, read-out: IC50 del19/T790M/C797S (nM) Km ATP
[14] = IC50 L858R/T790M/C797S (nM) 100 μM ATP, 100 μM ATP
[15] = Km ATP, read-out: IC50 L858R/C797S (nM) Km ATP

Chain of EGFR del19/T790M/C797S (P00533 with tags, fused parts or gaps DEL746-750/T790M/C797S): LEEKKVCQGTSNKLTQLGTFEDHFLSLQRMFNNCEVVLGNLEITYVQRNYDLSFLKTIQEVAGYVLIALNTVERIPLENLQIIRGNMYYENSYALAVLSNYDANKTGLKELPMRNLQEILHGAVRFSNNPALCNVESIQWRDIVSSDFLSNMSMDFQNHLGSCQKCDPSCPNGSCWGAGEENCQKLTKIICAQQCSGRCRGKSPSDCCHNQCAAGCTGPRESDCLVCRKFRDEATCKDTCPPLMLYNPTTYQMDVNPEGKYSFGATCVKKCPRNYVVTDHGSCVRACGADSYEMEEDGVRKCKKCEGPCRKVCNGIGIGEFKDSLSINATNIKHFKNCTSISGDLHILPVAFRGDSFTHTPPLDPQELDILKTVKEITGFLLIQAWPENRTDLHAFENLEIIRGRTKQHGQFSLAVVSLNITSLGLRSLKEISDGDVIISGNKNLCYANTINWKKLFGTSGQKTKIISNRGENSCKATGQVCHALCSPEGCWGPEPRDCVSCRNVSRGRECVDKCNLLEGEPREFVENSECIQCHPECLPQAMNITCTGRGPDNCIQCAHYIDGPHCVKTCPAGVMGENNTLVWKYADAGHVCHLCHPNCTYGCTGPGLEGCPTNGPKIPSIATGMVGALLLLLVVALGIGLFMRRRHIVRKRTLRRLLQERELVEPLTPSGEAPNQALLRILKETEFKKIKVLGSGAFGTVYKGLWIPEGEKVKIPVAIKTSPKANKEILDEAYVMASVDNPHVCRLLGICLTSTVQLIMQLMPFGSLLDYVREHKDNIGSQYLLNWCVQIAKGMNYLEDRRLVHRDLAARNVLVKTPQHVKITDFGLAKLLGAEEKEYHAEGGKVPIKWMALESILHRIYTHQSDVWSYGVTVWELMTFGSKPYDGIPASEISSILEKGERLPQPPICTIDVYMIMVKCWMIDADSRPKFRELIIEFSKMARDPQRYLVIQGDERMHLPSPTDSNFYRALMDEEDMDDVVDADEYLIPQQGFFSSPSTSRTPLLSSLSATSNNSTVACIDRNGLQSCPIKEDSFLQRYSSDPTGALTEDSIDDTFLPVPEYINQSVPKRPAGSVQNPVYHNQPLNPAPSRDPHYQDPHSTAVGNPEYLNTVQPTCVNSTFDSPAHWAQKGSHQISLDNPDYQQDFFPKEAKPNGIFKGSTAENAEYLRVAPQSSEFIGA
Chain of EGFR L858R/T790M/C797S (P00533 25-1210 T790M/C797S/L858R): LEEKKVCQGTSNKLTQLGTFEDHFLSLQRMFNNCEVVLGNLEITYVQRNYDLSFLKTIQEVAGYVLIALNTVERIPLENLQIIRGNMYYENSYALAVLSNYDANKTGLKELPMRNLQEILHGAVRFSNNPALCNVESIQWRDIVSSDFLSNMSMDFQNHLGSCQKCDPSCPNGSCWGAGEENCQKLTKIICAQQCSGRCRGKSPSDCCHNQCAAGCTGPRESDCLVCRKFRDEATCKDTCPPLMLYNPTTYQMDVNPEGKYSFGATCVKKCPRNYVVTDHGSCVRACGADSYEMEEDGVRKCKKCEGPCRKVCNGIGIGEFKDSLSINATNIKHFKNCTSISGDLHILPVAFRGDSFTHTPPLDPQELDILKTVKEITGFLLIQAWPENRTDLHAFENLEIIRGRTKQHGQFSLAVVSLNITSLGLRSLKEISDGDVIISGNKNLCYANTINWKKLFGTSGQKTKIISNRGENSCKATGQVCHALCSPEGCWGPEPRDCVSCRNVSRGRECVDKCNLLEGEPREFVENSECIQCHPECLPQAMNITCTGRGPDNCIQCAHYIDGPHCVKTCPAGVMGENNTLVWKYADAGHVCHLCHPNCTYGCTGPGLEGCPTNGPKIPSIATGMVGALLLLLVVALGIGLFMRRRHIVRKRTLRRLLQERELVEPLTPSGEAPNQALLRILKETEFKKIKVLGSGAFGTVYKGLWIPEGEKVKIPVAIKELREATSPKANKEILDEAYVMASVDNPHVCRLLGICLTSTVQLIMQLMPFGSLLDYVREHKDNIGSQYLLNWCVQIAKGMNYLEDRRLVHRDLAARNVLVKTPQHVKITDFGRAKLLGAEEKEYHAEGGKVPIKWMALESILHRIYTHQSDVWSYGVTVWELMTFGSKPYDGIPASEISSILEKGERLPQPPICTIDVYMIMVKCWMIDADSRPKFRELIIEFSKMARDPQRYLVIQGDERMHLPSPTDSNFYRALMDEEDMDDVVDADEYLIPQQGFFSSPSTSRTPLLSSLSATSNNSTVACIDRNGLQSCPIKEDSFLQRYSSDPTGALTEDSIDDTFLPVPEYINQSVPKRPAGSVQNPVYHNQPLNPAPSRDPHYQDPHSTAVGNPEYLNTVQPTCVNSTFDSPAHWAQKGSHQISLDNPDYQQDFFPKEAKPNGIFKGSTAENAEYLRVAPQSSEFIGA
Chain of EGFR L858R/C797S (P00533 25-1210 C797S/L858R): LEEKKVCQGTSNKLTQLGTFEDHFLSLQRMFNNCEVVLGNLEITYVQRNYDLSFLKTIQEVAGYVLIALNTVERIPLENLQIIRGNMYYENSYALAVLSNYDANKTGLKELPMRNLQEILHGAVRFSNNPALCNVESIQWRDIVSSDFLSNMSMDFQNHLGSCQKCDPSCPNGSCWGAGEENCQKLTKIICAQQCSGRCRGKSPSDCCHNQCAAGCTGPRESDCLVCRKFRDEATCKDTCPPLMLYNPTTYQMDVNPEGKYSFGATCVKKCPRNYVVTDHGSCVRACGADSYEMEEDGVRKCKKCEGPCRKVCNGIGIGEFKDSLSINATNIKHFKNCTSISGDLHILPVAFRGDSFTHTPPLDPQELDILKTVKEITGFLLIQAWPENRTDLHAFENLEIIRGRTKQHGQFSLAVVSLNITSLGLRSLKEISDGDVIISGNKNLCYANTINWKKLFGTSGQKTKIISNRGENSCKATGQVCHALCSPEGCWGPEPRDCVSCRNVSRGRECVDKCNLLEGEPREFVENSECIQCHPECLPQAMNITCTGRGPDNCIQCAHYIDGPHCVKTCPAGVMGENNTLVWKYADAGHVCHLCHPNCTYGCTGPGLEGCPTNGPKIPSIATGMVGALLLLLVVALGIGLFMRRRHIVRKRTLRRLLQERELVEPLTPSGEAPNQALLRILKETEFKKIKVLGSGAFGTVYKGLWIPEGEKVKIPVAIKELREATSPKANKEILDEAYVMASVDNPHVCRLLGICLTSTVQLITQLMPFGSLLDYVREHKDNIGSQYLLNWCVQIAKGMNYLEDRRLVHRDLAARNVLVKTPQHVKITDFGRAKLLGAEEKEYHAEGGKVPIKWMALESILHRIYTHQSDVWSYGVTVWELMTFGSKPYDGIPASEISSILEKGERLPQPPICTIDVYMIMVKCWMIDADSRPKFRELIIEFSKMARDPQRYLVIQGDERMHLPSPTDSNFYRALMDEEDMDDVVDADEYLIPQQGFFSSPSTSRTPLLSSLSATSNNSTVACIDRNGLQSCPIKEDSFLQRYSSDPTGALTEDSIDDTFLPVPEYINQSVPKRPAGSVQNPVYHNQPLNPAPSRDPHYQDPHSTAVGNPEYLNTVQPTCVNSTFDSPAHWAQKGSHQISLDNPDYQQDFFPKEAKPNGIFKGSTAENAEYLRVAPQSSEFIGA
Chain of EGFR wildtype (WT) (P00533 25-1210): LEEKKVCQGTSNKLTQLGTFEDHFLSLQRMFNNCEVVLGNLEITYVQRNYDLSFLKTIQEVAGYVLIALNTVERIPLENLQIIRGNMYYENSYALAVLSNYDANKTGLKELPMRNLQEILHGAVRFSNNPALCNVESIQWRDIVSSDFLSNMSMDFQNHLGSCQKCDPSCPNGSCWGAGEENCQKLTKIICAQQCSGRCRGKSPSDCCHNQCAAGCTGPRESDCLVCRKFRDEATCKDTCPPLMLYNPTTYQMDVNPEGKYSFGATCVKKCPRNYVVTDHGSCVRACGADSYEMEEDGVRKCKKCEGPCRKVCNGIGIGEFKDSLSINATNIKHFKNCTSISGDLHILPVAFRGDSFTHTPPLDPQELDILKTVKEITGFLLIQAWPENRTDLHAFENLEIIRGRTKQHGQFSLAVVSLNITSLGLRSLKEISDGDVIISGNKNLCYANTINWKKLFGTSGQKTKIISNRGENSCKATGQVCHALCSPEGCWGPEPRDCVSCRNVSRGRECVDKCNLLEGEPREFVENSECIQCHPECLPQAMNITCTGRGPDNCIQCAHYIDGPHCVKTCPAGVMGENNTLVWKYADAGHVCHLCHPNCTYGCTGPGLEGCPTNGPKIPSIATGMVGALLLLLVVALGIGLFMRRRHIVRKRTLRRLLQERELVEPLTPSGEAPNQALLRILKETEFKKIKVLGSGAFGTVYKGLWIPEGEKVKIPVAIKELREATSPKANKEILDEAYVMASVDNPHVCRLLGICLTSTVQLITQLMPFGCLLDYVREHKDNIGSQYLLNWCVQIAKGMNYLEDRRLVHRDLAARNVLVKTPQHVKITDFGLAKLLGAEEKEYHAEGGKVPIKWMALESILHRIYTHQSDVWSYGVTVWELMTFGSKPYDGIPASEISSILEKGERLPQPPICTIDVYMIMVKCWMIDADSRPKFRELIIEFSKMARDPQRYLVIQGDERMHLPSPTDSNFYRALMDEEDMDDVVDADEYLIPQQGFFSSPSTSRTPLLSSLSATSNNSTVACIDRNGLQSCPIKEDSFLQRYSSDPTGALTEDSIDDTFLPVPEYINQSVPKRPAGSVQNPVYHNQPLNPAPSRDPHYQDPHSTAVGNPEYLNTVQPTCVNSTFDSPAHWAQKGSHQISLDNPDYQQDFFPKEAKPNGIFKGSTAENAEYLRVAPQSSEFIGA

Row | SMILES | IC50 [1, 6] [nM] | IC50 [1, 7] [nM] | IC50 [2, 8] [nM] | IC50 [2, 9] [nM] | IC50 [3, 10] [nM] | IC50 [4, 11] [nM] | IC50 [5, 12] [nM] | IC50 [5, 13] [nM] | IC50 [3, 14] [nM] | IC50 [4, 15] [nM]
1 | CN[C@H]1CC[C@@H](Oc2cc(Nc3ccnc(-c4cnn(S(=O)(=O)C5CC5)c4)n3)ncc2-c2ccn(C(F)F)n2)CC1 [Example 65, 2-(1-(Cyclopropylsulfonyl)-1H-pyrazol-4-yl)-N-(5-(1-(difluoromethyl)-1H-pyrazol-3-yl)-4-(((1s,4s)-4-(methylamino)cyclohexyl)oxy)pyridin-2-yl)pyrimidin-4-amine] | 54.5 | 33.5 | > 10000 | 149 | 0.6 | 622 | 1.2 | 0.8 | 4.2 | 33.5
2 | O=S(=O)(C1CC1)n1cc(-c2nccc(Nc3cc(OC4CCC(O)C4)c(-c4ccn(C(F)F)n4)cn3)n2)cn1 (stereo not shown) [Example 67, 3-((2-((2-(1-(Cyclopropylsulfonyl)-1H-pyrazol-4-yl)pyrimidin-4-yl)amino)-5-(1-(difluoromethyl)-1H-pyrazol-3-yl)pyridin-4-yl)oxy)cyclopentan-1-ol] | 111 | 111 | > 10000 | 336 | 3.8 | 596 | 3.6 | 3.4 | 15.7 | 23.5
3 | CC1(O)CCC(Oc2cc(Nc3ccnc(-c4cnn(S(=O)(=O)C5CC5)c4)n3)ncc2-c2ccn(C(F)F)n2)CC1 (stereo not shown) [Example 68, 4-((2-((2-(1-(Cyclopropylsulfonyl)-1H-pyrazol-4-yl)pyrimidin-4-yl)amino)-5-(1-(difluoromethyl)-1H-pyrazol-3-yl)pyridin-4-yl)oxy)-1-methylcyclohexan-1-ol] | 6.1 | 7.3 | > 10000 | 95.8 | 0.2 | 55.9 | 0.6 | 0.5 | 1.7 | 6.3
4 | CN[C@H]1CC[C@@H](Oc2cc(Nc3ccnc(-c4cnn(S(=O)(=O)C5CC5)c4)n3)ncc2-c2cnn(C(F)F)c2)CC1 [Example 69, 2-(1-(Cyclopropylsulfonyl)-1H-pyrazol-4-yl)-N-(5-(1-(difluoromethyl)-1H-pyrazol-4-yl)-4-(((1s,4s)-4-(methylamino)cyclohexyl)oxy)pyridin-2-yl)pyrimidin-4-amine] | 18.7 | 11.2 | > 10000 | 114 | 0.2 | 257 | 0.5 | 0.3 | 1.9 | 14.7

The next molecules have a lower IC50 [1, 6] than those just listed; values first:

Row | IC50 [1, 6] [nM] | IC50 [1, 7] [nM] | IC50 [2, 8] [nM] | IC50 [2, 9] [nM] | IC50 [3, 10] [nM] | IC50 [4, 11] [nM] | IC50 [5, 12] [nM] | IC50 [5, 13] [nM] | IC50 [3, 14] [nM] | IC50 [4, 15] [nM] | SMILES
5 | 4.5 | 7.7 | > 10000 | 38.9 | 0.3 | 80.1 | 0.4 | 0.3 | 2.7 | 5 | O=S(=O)(C1CC1)n1cc(-c2nccc(Nc3cc(OC4CCC(O)CC4)c(-c4ccn(C(F)F)n4)cn3)n2)cn1 (stereo not shown) [Example 66, 4-((2-((2-(1-(Cyclopropylsulfonyl)-1H-pyrazol-4-yl)pyrimidin-4-yl)amino)-5-(1-(difluoromethyl)-1H-pyrazol-3-yl)pyridin-4-yl)oxy)cyclohexan-1-ol]
6 | 3.3 | 2.7 | > 10000 | 42.9 | 0.5 | 21 | 1 | 1 | – | – | CC(C)c1cc(-c2cnc(Nc3ccnc(-c4cnn(S(=O)(=O)C5CC5)c4)n3)cc2N[C@H]2CC[C@@](C)(O)CC2)on1 [Example 64, (1s,4s)-4-((2-((2-(1-(Cyclopropylsulfonyl)-1H-pyrazol-4-yl)pyrimidin-4-yl)amino)-5-(3-isopropylisoxazol-5-yl)pyridin-4-yl)amino)-1-methylcyclohexan-1-ol]

— US12258327B2, “5-membered heteroaryl-containing aminopyridine compounds as EGFR inhibitors” (YUHAN CORPORATION, priority 2021, dated 2025)
